Test system: HOP-62 complex spheroids with HUVEC/MSC, viability
Experiment: Anticancer human tumor HOP-62 cell line growth inhibition [RAS];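 note: spheroids exposed to agents for seven days before readout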;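 for viability, T/C: 100% = DMSO vehicle control viability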
Settings: for IC50: curve of first compound; for viability, T/C: stronger effect = lower value; active = viability on the fitted dose curve at most 10% of control; inactive = the rest
Outline: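 Tumour cells grown as complex spheroids with HUVEC endothelial cells and mesenchymal stem cells, treated with RAS pathway inhibitor combinations. Each agent spans half-log steps from near clinical Cmax, or 10 microM where Cmax is unknown.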

[1] = second compound 0.000949 µM, first compound 0.0316 µM
[2] = second compound 0.000949 µM, first compound 0.1 µM
[3] = second compound 0.000949 µM, first compound 0.316 µM
[4] = second compound 0.000949 µM, first compound 1 µM
[5] = second compound 0.000949 µM, first compound 3.16 µM
[6] = second compound 0.000949 µM, first compound 10 µM
[7] = second compound 0.003 µM, first compound 0.0316 µM
[8] = second compound 0.003 µM, first compound 0.1 µM
[9] = second compound 0.003 µM, first compound 0.316 µM
[10] = second compound 0.003 µM, first compound 1 µM
[11] = second compound 0.003 µM, first compound 3.16 µM
[12] = second compound 0.003 µM, first compound 10 µM
[13] = second compound 0.00949 µM, first compound 0.0316 µM
[14] = second compound 0.00949 µM, first compound 0.1 µM
[15] = second compound 0.00949 µM, first compound 0.316 µM
[16] = second compound 0.00949 µM, first compound 1 µM
[17] = second compound 0.00949 µM, first compound 3.16 µM
[18] = second compound 0.00949 µM, first compound 10 µM
[19] = second compound 0.03 µM, first compound 0.0316 µM
[20] = second compound 0.03 µM, first compound 0.1 µM
[21] = second compound 0.03 µM, first compound 0.316 µM
[22] = second compound 0.03 µM, first compound 1 µM
[23] = second compound 0.03 µM, first compound 3.16 µM
[24] = second compound 0.03 µM, first compound 10 µM
[25] = second compound 0.0949 µM, first compound 0.0316 µM
[26] = second compound 0.0949 µM, first compound 0.1 µM
[27] = second compound 0.0949 µM, first compound 0.316 µM
[28] = second compound 0.0949 µM, first compound 1 µM
[29] = second compound 0.0949 µM, first compound 3.16 µM
[30] = second compound 0.0949 µM, first compound 10 µM
[31] = second compound 0.3 µM, first compound 0.0316 µM
[32] = second compound 0.3 µM, first compound 0.1 µM
[33] = second compound 0.3 µM, first compound 0.316 µM
[34] = second compound 0.3 µM, first compound 1 µM
[35] = second compound 0.3 µM, first compound 3.16 µM
[36] = second compound 0.3 µM, first compound 10 µM

CC(C)NCC(C(=O)N1CCN(c2ncnc3c2C(C)CC3O)CC1)c1ccc(Cl)cc1 (stereo unspecified) + CCn1c(-c2cc(N3CCN(C)CC3)cnc2C(C)OC)c2c3cc(ccc31)-c1csc(n1)CC(NC(=O)C1CC1C)C(=O)N1CCCC(N1)C(=O)OCC(C)(C)C2
inactive: viability, T/C [1] 121% | viability, T/C [2] 119% | viability, T/C [3] 80.8% | viability, T/C [4] 88.9% | viability, T/C [5] 60% | viability, T/C [6] 19.1% | viability, T/C [7] 100% | viability, T/C [8] 95% | viability, T/C [9] 71.2% | viability, T/C [10] 71.3% | viability, T/C [11] 44.1% | viability, T/C [12] 17% | viability, T/C [13] 74.7% | viability, T/C [14] 56.9% | viability, T/C [15] 58.5% | viability, T/C [16] 48.6% | viability, T/C [17] 21.5% | viability, T/C [18] 12.3% | viability, T/C [19] 46.9% | viability, T/C [20] 46.3% | viability, T/C [21] 38.3% | viability, T/C [22] 31.7% | viability, T/C [23] 14.8% | viability, T/C [24] 15.3% | viability, T/C [25] 34.7% | viability, T/C [26] 40.6% | viability, T/C [27] 30.4% | viability, T/C [28] 30.9% | viability, T/C [29] 15% | viability, T/C [30] 13.9% | viability, T/C [31] 34.2% | viability, T/C [32] 38.6% | viability, T/C [33] 29.6% | viability, T/C [34] 22.4% | viability, T/C [35] 19.2% | viability, T/C [36] 14.5%
2300 nM: IC50 (second compound 0.003 µM)
3880 nM: IC50 (second compound 0.000949 µM)
587 nM: IC50 (second compound 0.00949 µM)
< 31.6 nM: IC50 (second compound 0.03 µM) | IC50 (second compound 0.0949 µM) | IC50 (second compound 0.3 µM)

CC(Nc1ccc2c(c1)OCCn1cc(N3C(=O)OCC3C(F)F)nc1-2)C(N)=O (stereo unspecified) + CCn1c(-c2cc(N3CCN(C)CC3)cnc2C(C)OC)c2c3cc(ccc31)-c1csc(n1)CC(NC(=O)C1CC1C)C(=O)N1CCCC(N1)C(=O)OCC(C)(C)C2
inactive: viability, T/C [1] 91.4% | viability, T/C [2] 69.2% | viability, T/C [3] 53.9% | viability, T/C [4] 61% | viability, T/C [5] 49.9% | viability, T/C [6] 25.9% | viability, T/C [7] 75.9% | viability, T/C [8] 52.7% | viability, T/C [9] 47.5% | viability, T/C [10] 46.2% | viability, T/C [11] 36.7% | viability, T/C [12] 15.7% | viability, T/C [13] 48.4% | viability, T/C [14] 36.8% | viability, T/C [15] 36.1% | viability, T/C [16] 27.4% | viability, T/C [17] 19.2% | viability, T/C [18] 12.6% | viability, T/C [19] 33.1% | viability, T/C [20] 23.2% | viability, T/C [21] 22.5% | viability, T/C [22] 21.5% | viability, T/C [23] 13.8% | viability, T/C [24] 14.7% | viability, T/C [25] 27.1% | viability, T/C [26] 24.8% | viability, T/C [27] 20.5% | viability, T/C [28] 21.5% | viability, T/C [29] 12.8% | viability, T/C [30] 14% | viability, T/C [31] 32.5% | viability, T/C [32] 20.1% | viability, T/C [33] 21.3% | viability, T/C [34] 17.3% | viability, T/C [35] 13.4% | viability, T/C [36] 15.7%
1370 nM: IC50 (second compound 0.000949 µM)
365 nM: IC50 (second compound 0.003 µM)
< 31.6 nM: IC50 (second compound 0.00949 µM) | IC50 (second compound 0.03 µM) | IC50 (second compound 0.0949 µM) | IC50 (second compound 0.3 µM)

O=C(c1ccc(F)c(F)c1Nc1ccc(I)cc1F)N1CC(O)([C@@H]2CCCCN2)C1 + CCn1c(-c2cc(N3CCN(C)CC3)cnc2C(C)OC)c2c3cc(ccc31)-c1csc(n1)CC(NC(=O)C1CC1C)C(=O)N1CCCC(N1)C(=O)OCC(C)(C)C2
113 nM: IC50 (second compound 0.003 µM)
319 nM: IC50 (second compound 0.000949 µM)
56.7 nM: IC50 (second compound 0.00949 µM)
< 3.16 nM: IC50 (second compound 0.03 µM) | IC50 (second compound 0.0949 µM) | IC50 (second compound 0.3 µM)
inactive: viability, T/C (second compound 0.000949 µM, first compound 0.00316 µM) 119% | viability, T/C (second compound 0.000949 µM, first compound 0.01 µM) 113% | viability, T/C [1] 78.7% | viability, T/C [2] 75.9% | viability, T/C [3] 51.2% | viability, T/C [4] 27% | viability, T/C (second compound 0.003 µM, first compound 0.00316 µM) 86.3% | viability, T/C (second compound 0.003 µM, first compound 0.01 µM) 73.3% | viability, T/C [7] 56.9% | viability, T/C [8] 56.5% | viability, T/C [9] 39.3% | viability, T/C [10] 37.3% | viability, T/C (second compound 0.00949 µM, first compound 0.00316 µM) 65.5% | viability, T/C (second compound 0.00949 µM, first compound 0.01 µM) 52% | viability, T/C [13] 67.8% | viability, T/C [14] 38.5% | viability, T/C [15] 28.5% | viability, T/C [16] 30.9% | viability, T/C (second compound 0.03 µM, first compound 0.00316 µM) 49.9% | viability, T/C (second compound 0.03 µM, first compound 0.01 µM) 45.9% | viability, T/C [19] 33.1% | viability, T/C [20] 32.2% | viability, T/C [21] 29.2% | viability, T/C [22] 37.3% | viability, T/C (second compound 0.0949 µM, first compound 0.00316 µM) 36.7% | viability, T/C (second compound 0.0949 µM, first compound 0.01 µM) 35.3% | viability, T/C [25] 32.9% | viability, T/C [26] 41.7% | viability, T/C [27] 32.8% | viability, T/C [28] 37.5% | viability, T/C (second compound 0.3 µM, first compound 0.00316 µM) 37% | viability, T/C (second compound 0.3 µM, first compound 0.01 µM) 39.1% | viability, T/C [31] 37% | viability, T/C [32] 38.7% | viability, T/C [33] 32.9% | viability, T/C [34] 38.3%

Reference: PubChem BioAssay AID2060892 (Molecular Pharmacology Branch, DTP, NCI, 2025)
